Legend:
[1] = test system: Spontaneously hypertensive rats (SHR); assay: SBP of SHR by Tail-Cuff method, continuous intragastric administration for 8 days (Examples 1-7); type: in vivo, rat
Experimental: Spontaneously hypertensive rats (SHR), male, are provided by Beijing Vital River Laboratory Animal Technology Co., Ltd. The number of animal production license is SCXK (Jing) 2007-0001. Animals are raised in an observation room at the room temperature of 25±2° C. controlled by central air-conditioning system and with artificial lighting of 12 h/day. The animals are raised in separate cages sized 43×27×18 cm with 4 animals for each cage. The rats are free access to water and are fed with block fodder everyday, and the water supply is refreshed once a day. The temperature of the room for measuring the blood pressure is 26±2° C.
The blood pressure is measured by Tail-Cuff method and the hear rate is measured according to the pulse frequency. Animals are pre-trained for the blood pressure measurement for more than 2 weeks so as to adapt to the environment of measurement. Animals are placed in a isothermal bag at 37° C. to be prewarmed for 5 to 10 min for formal measurement. Blood pressures of the rats are measured from tail arteries for 2 to 3 times at rest states, and an average value is taken as each blood pressure measured value. All data are collected and preserved by a computer.
SHRs with systolic blood pressures (SBPs) >190 mmHg are selected for experiment.
Rats are randomly divided into 14 groups according to their blood pressures with each group having 7 rats. Animals are fasted overnight and measured for the blood pressure of pre-administration at the day of experiment, and then administered drugs in accordance with the following method:
The single-drug group is intragastrically administered candesartan (Can) or chlorthalidone (Chl), with the dosage of Can of 0.36 mg/kg and the dosages of Chl of 0.0675, 0.36, 0.54, 0.72, 1.125 and 2.25 mg/kg respectively;
The pharmaceutical composition is administered with 6 different doses (denoted by F1, F2, F3, F4, F5 and F6 respectively). Specifically, the ratios of the dosages of Can+Chl in all pharmaceutical compositions are:
The administration volumes are all 5 ml/kg.
Rats are continuously administered for 8 days. SBPs are measured 2, 4, 8, 12 and 24 hours after the last administration. The area under blood pressure reduction-time curve from 0 to 24 h (AUC0-24) and the maximum blood pressure reduction value are calculated.
The calculated results are expressed as mean±standard error ( x±SE); statistical treatment is performed using unpaired t test between groups to compare the significance of the average difference; the interaction between drugs are determined by using factorial analysis of variance, and P<0.05 means the difference has statistical significance.

[2] = test system: Spontaneously hypertensive rats (SHR); assay: SBP of SHR by Tail-Cuff method, first administration and continuous administration for 14 days (Examples 8-12); type: in vivo, rat
patients = conditions: study in 1714 patients; cited from earlier work
[3] = clinical studies; cited from earlier work
[4] = Chl 0.0675 mg/kg i.g. 8 days, 2 h after last administration
[5] = Chl 0.0675 mg/kg i.g. 8 days, 4 h after last administration
[6] = Chl 0.0675 mg/kg i.g. 8 days, 8 h after last administration
[7] = Chl 0.0675 mg/kg i.g. 8 days, 12 h after last administration
[8] = Chl 0.0675 mg/kg i.g. 8 days, 24 h after last administration
[9] = Chl 0.0675 mg/kg i.g. 8 days, pre-administration
[10] = Chl 0.36 mg/kg i.g. 8 days (Table 2), 2 h after last administration
[11] = Chl 0.36 mg/kg i.g. 8 days (Table 2), 4 h after last administration
[12] = Chl 0.36 mg/kg i.g. 8 days (Table 2), 8 h after last administration
[13] = Chl 0.36 mg/kg i.g. 8 days (Table 2), 12 h after last administration
[14] = Chl 0.36 mg/kg i.g. 8 days (Table 2), 24 h after last administration
[15] = Chl 0.36 mg/kg i.g. 8 days (Table 2), pre-administration
[16] = Chl 1.125 mg/kg i.g. 8 days, 2 h after last administration
[17] = Chl 1.125 mg/kg i.g. 8 days, 4 h after last administration
[18] = Chl 1.125 mg/kg i.g. 8 days, 8 h after last administration
[19] = Chl 1.125 mg/kg i.g. 8 days, 12 h after last administration
[20] = Chl 1.125 mg/kg i.g. 8 days, 24 h after last administration
[21] = Chl 1.125 mg/kg i.g. 8 days, pre-administration
[22] = Chl 2.25 mg/kg i.g. 8 days, 2 h after last administration
[23] = Chl 2.25 mg/kg i.g. 8 days, 4 h after last administration
[24] = Chl 2.25 mg/kg i.g. 8 days, 8 h after last administration
[25] = Chl 2.25 mg/kg i.g. 8 days, 12 h after last administration
[26] = Chl 2.25 mg/kg i.g. 8 days, 24 h after last administration
[27] = Chl 2.25 mg/kg i.g. 8 days, pre-administration
[28] = Chl, dosage 0.36 mg/kg in Table 3 (Example 3 title: 0.54 mg/kg), i.g. 8 days, 2 h after last administration
[29] = Chl, dosage 0.36 mg/kg in Table 3 (Example 3 title: 0.54 mg/kg), i.g. 8 days, 4 h after last administration
[30] = Chl, dosage 0.36 mg/kg in Table 3 (Example 3 title: 0.54 mg/kg), i.g. 8 days, 8 h after last administration
[31] = Chl, dosage 0.36 mg/kg in Table 3 (Example 3 title: 0.54 mg/kg), i.g. 8 days, 12 h after last administration
[32] = Chl, dosage 0.36 mg/kg in Table 3 (Example 3 title: 0.54 mg/kg), i.g. 8 days, 24 h after last administration
[33] = Chl, dosage 0.36 mg/kg in Table 3 (Example 3 title: 0.54 mg/kg), i.g. 8 days, pre-administration
[34] = Chl, dosage 0.36 mg/kg in Table 4 (Example 4 title: 0.72 mg/kg), i.g. 8 days, 2 h after last administration
[35] = Chl, dosage 0.36 mg/kg in Table 4 (Example 4 title: 0.72 mg/kg), i.g. 8 days, 4 h after last administration
[36] = Chl, dosage 0.36 mg/kg in Table 4 (Example 4 title: 0.72 mg/kg), i.g. 8 days, 8 h after last administration
[37] = Chl, dosage 0.36 mg/kg in Table 4 (Example 4 title: 0.72 mg/kg), i.g. 8 days, 12 h after last administration
[38] = Chl, dosage 0.36 mg/kg in Table 4 (Example 4 title: 0.72 mg/kg), i.g. 8 days, 24 h after last administration
[39] = Chl, dosage 0.36 mg/kg in Table 4 (Example 4 title: 0.72 mg/kg), i.g. 8 days, pre-administration

SMILES: NS(=O)(=O)c1cc(C2(O)NC(=O)c3ccccc32)ccc1Cl (stereo not drawn) [Chl, Chlorthalidone]
- antihypertensive effect after the administration ([1]; Chl 0.0675 mg/kg): no significant antihypertensive effect
- AUC0-24h (area under blood pressure reduction-time curve) ([1]; Chl 0.0675 mg/kg i.g. 8 days): −9.0 mmHg · h
- maximum reduction of the blood pressure ([1]; Chl 0.0675 mg/kg i.g. 8 days): −4.7 mmHg
- SBP [1, 4]: 203 mmHg
- SBP difference value compared with the basic value [1, 4]: (−2.1 mmHg
- SBP [1, 5]: 206 mmHg
- SBP difference value compared with the basic value [1, 5]: (0.6 mmHg
- SBP [1, 6]: 204 mmHg
- SBP difference value compared with the basic value [1, 6]: (−1.4 mmHg
- SBP [1, 7]: 203 mmHg
- SBP difference value compared with the basic value [1, 7]: (−2.0 mmHg
- SBP [1, 8]: 207 mmHg
- SBP difference value compared with the basic value [1, 8]: (2.1 mmHg
- SBP [1, 9]: 208 mmHg
- SBP difference value compared with the basic value [1, 9]: (2.3 mmHg
- AUC0-24h (area under blood pressure reduction-time curve) ([1]; Chl 0.36 mg/kg i.g. 8 days): −26.0 mmHg · h
- maximum reduction of the blood pressure ([1]; Chl 0.36 mg/kg i.g. 8 days): −3.7 mmHg
- SBP [1, 10]: 205 mmHg
- SBP difference value compared with the basic value [1, 10]: (−0.6 mmHg
- SBP [1, 11]: 204 mmHg
- SBP difference value compared with the basic value [1, 11]: (−1.3 mmHg
- SBP [1, 12]: 204 mmHg
- SBP difference value compared with the basic value [1, 12]: (−1.3 mmHg
- SBP [1, 13]: 204 mmHg
- SBP difference value compared with the basic value [1, 13]: (−1.4 mmHg
- SBP [1, 14]: 205 mmHg
- SBP difference value compared with the basic value [1, 14]: (−0.4 mmHg
- SBP [1, 15]: 204 mmHg
- SBP difference value compared with the basic value [1, 15]: (−1.4 mmHg
- AUC0-24h (area under blood pressure reduction-time curve) ([1]; Chl 0.54 mg/kg i.g. 8 days): −57.0 mmHg · h
- maximum reduction of the blood pressure ([1]; Chl 0.54 mg/kg i.g. 8 days): −4.7 mmHg
- AUC0-24h (area under blood pressure reduction-time curve) ([1]; Chl 0.72 mg/kg i.g. 8 days): −79.0 mmHg · h
- maximum reduction of the blood pressure ([1]; Chl 0.72 mg/kg i.g. 8 days): −5.7 mmHg
- time after administration at which an antihypertensive effect is seen ([1]; Chl 1.125 mg/kg): 4 h
- AUC0-24h (area under blood pressure reduction-time curve) ([1]; Chl 1.125 mg/kg i.g. 8 days): −110.0 mmHg · h
- maximum reduction of the blood pressure ([1]; Chl 1.125 mg/kg i.g. 8 days): −12.0 mmHg
- SBP [1, 16]: 205 mmHg
- SBP difference value compared with the basic value [1, 16]: (−2.9 mmHg
- SBP [1, 17]: 199 mmHg
- SBP difference value compared with the basic value [1, 17]: (−8.9 mmHg
- SBP [1, 18]: 201 mmHg
- SBP difference value compared with the basic value [1, 18]: (−6.3 mmHg
- SBP [1, 19]: 202 mmHg
- SBP difference value compared with the basic value [1, 19]: (−6.0 mmHg
- SBP [1, 20]: 207 mmHg
- SBP difference value compared with the basic value [1, 20]: (−0.4 mmHg
- SBP [1, 21]: 206 mmHg
- SBP difference value compared with the basic value [1, 21]: (−1.7 mmHg
- period after administration with significant antihypertensive effect ([1]; Chl 2.25 mg/kg): 2 to 12 h
- AUC0-24h (area under blood pressure reduction-time curve) ([1]; Chl 2.25 mg/kg i.g. 8 days): −199.0 mmHg · h
- maximum reduction of the blood pressure ([1]; Chl 2.25 mg/kg i.g. 8 days): −15.0 mmHg
- SBP [1, 22]: 198 mmHg
- SBP difference value compared with the basic value [1, 22]: (−8.3 mmHg
- SBP [1, 23]: 192 mmHg
- SBP difference value compared with the basic value [1, 23]: (−11.3 mmHg
- SBP [1, 24]: 195 mmHg
- SBP difference value compared with the basic value [1, 24]: (−11.1 mmHg
- SBP [1, 25]: 197 mmHg
- SBP difference value compared with the basic value [1, 25]: (−9.4 mmHg
- SBP [1, 26]: 202 mmHg
- SBP difference value compared with the basic value [1, 26]: (−4.6 mmHg
- SBP [1, 27]: 205 mmHg
- SBP difference value compared with the basic value [1, 27]: (−1.3 mmHg
- influence on the maximum reduction of SBP and the AUC compared with the blank control group ([1]; Chl 0.0675, 0.36, 0.54 and 0.72 mg/kg): no significant influence
- influence on the maximum reduction of SBP and the AUC compared with the blank control group ([1]; Chl 1.125 and 2.25 mg/kg): significant decrease
- SBP [1, 28]: 202 mmHg
- SBP difference value compared with the basic value [1, 28]: (−2.0 mmHg
- SBP [1, 29]: 202 mmHg
- SBP difference value compared with the basic value [1, 29]: (−2.0 mmHg
- SBP [1, 30]: 201 mmHg
- SBP difference value compared with the basic value [1, 30]: (−3.7 mmHg
- SBP [1, 31]: 203 mmHg
- SBP difference value compared with the basic value [1, 31]: (−1.9 mmHg
- SBP [1, 32]: 202 mmHg
- SBP difference value compared with the basic value [1, 32]: (−2.6 mmHg
- SBP [1, 33]: 203 mmHg
- SBP difference value compared with the basic value [1, 33]: (−1.6 mmHg
- SBP [1, 34]: 203 mmHg
- SBP difference value compared with the basic value [1, 34]: (−3.9 mmHg
- SBP [1, 35]: 202 mmHg
- SBP difference value compared with the basic value [1, 35]: (−4.9 mmHg
- SBP [1, 36]: 202 mmHg
- SBP difference value compared with the basic value [1, 36]: (−4.9 mmHg
- SBP [1, 37]: 205 mmHg
- SBP difference value compared with the basic value [1, 37]: (−2.6 mmHg
- SBP [1, 38]: 205 mmHg
- SBP difference value compared with the basic value [1, 38]: (−2.4 mmHg
- SBP [1, 39]: 205 mmHg
- SBP difference value compared with the basic value [1, 39]: (−2.3 mmHg
- AUC0-14d ([2]; Chl 0.15625 mg/kg i.g. for 14 days): −36.0 mmHg · d
- AUC0-24h ([2]; Chl 0.15625 mg/kg i.g., after first administration): −47.0 mmHg · h
- reduction of SBP compared with the basic value (patients): 12.7-15.9 mmHg
- valid control rate of blood pressure [3]: 68.2%

— US9216169B2, “Pharmaceutical composition comprising candesartan or ester thereof and chlortalidone, and use thereof” (TIANJIN INSTITUTE OF PHARMACEUTICAL RESEARCH, priority 2011, dated 2015)
